Measured values: ChEMBL document CHEMBL1201862, “PubChem BioAssay data set” (2004)
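Assay format: 96-well plates, 48-hour exposure. GI50 marks 50% less growth.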 Calls of active or inactive are those of the source. Rule as the data show it: active = GI50 up to about 1.1 µM and inactive = higher.

Legend:
Test in all cases: inhibition of tumour cell growth, NCI panel, 48 h
COLO 205 = test system: COLO 205
KM12 = test system: KM12
NCI/ADR-RES = test system: NCI/ADR-RES
SK-OV-3 = test system: SK-OV-3
K562 = test system: K562
HL-60 = test system: HL-60
MOLT-4 = test system: MOLT-4
SK-MEL-5 = test system: SK-MEL-5
EKVX = test system: EKVX
OVCAR-5 = test system: OVCAR-5
A549 = test system: A549
MDA-N = test system: MDA-N
Malme-3M = test system: Malme-3M
SW-620 = test system: SW-620
UO-31 = test system: UO-31
SR = test system: SR
CCRF-CEM = test system: CCRF-CEM
SK-MEL-2 = test system: SK-MEL-2
DU-145 = test system: DU-145

Measured: GI50

O=[N+]([O-])c1ccc(-n2nc3ccc4c(no[n+]4[O-])c3n2)cc1
inactive: COLO 205 > 100 µM | KM12 > 100 µM | NCI/ADR-RES > 100 µM | SK-OV-3 > 100 µM | K562 > 100 µM | HL-60 7.35 µM | MOLT-4 74.6 µM | SK-MEL-5 80.2 µM | EKVX 24.8 µM | OVCAR-5 > 100 µM | A549 12.4 µM | MDA-N > 100 µM | Malme-3M > 100 µM | SW-620 > 100 µM | UO-31 15.1 µM | SR > 100 µM | CCRF-CEM > 100 µM | SK-MEL-2 > 100 µM | DU-145 35.4 µM

CN(C)Cc1cc(C(C)(C)C)ccc1-c1ccc(C(C)(C)C)cc1CN(C)C
inactive: COLO 205 64.3 µM | KM12 > 100 µM | NCI/ADR-RES > 100 µM | SK-OV-3 > 100 µM | K562 40.7 µM | HL-60 > 100 µM | MOLT-4 > 100 µM | SK-MEL-5 > 100 µM | EKVX 62.2 µM | OVCAR-5 > 100 µM | A549 > 100 µM | MDA-N > 100 µM | Malme-3M 51.9 µM | SW-620 > 100 µM | UO-31 81.3 µM | SR > 100 µM | CCRF-CEM 56.8 µM | SK-MEL-2 > 100 µM | DU-145 > 100 µM

O=C1OCC2=C1C(c1ccc3c(c1)OCO3)c1cc3c(cc1O2)OCO3 (configuration not stated)
active: COLO 205 0.44 µM | NCI/ADR-RES 0.255 µM | SK-OV-3 0.776 µM | K562 0.269 µM | HL-60 0.134 µM | MOLT-4 0.374 µM | SK-MEL-5 0.486 µM | A549 0.897 µM | MDA-N 0.0782 µM | SW-620 0.406 µM | SR 0.19 µM | CCRF-CEM 0.667 µM | SK-MEL-2 0.375 µM
inactive: EKVX 1.72 µM | OVCAR-5 7.48 µM | Malme-3M 3.1 µM | UO-31 1.59 µM | DU-145 1.64 µM

ClCCCSSCCCCl
inactive: COLO 205 32.1 µM | KM12 32.3 µM | NCI/ADR-RES 34.4 µM | SK-OV-3 44 µM | K562 25.8 µM | HL-60 3.86 µM | MOLT-4 2.06 µM | SK-MEL-5 37.8 µM | EKVX 74 µM | OVCAR-5 > 91.6 µM | A549 38.6 µM | MDA-N 19.9 µM | Malme-3M 32.3 µM | SW-620 27.7 µM | UO-31 30.7 µM | SR 8.36 µM | CCRF-CEM 5.08 µM | SK-MEL-2 40.2 µM | DU-145 43.1 µM

COC(=O)C(=O)c1cc2ccccc2n1S(=O)(=O)c1ccccc1
inactive: COLO 205 > 100 µM | KM12 > 100 µM | NCI/ADR-RES > 100 µM | SK-OV-3 > 100 µM | K562 > 100 µM | HL-60 > 100 µM | MOLT-4 > 100 µM | SK-MEL-5 > 100 µM | EKVX > 100 µM | OVCAR-5 > 100 µM | A549 > 100 µM | MDA-N > 100 µM | Malme-3M > 100 µM | SW-620 > 100 µM | UO-31 > 100 µM | SR > 100 µM | CCRF-CEM > 100 µM | SK-MEL-2 > 100 µM | DU-145 > 100 µM

CCCCCCCCCCCOCCC1C(C(C)OCCN2CCCC2)OC2OC(C)(C)OC21 (configuration not stated)
inactive: COLO 205 1.92 µM | NCI/ADR-RES 3.41 µM | SK-OV-3 4.24 µM | K562 2.25 µM | MOLT-4 1.68 µM | SK-MEL-5 1.82 µM | EKVX 4.47 µM | OVCAR-5 3.67 µM | A549 4.82 µM | MDA-N 1.95 µM | Malme-3M 1.6 µM | SW-620 1.78 µM | UO-31 2.51 µM | CCRF-CEM 3.6 µM | SK-MEL-2 1.76 µM | DU-145 5.43 µM
active: KM12 0.681 µM | HL-60 1.11 µM | SR 0.46 µM

CSC(SC)=C(C#N)C(=O)Nc1ccc(Cl)cc1
inactive: COLO 205 18.3 µM | KM12 68.2 µM | NCI/ADR-RES 44.4 µM | SK-OV-3 > 100 µM | K562 25.9 µM | HL-60 23.9 µM | MOLT-4 27.7 µM | SK-MEL-5 51.6 µM | EKVX 44.7 µM | OVCAR-5 > 100 µM | A549 31.3 µM | MDA-N 74.6 µM | Malme-3M 27.1 µM | SW-620 44.1 µM | UO-31 22 µM | SR 38.1 µM | CCRF-CEM 20.6 µM | SK-MEL-2 > 100 µM | DU-145 74.6 µM
